Source: patent publication US9926298B2, “Heterocyclic compounds and use thereof” (National Health Research Institutes, priority 2014, dated 2018)

Tests used:
[1] = test system: Limb Ischemia in Mice; assay: Limb ischemia in mice; assay type: in vivo, ICR mice; details: 6 mg/kg/d subcutaneous, twice a week, laser Doppler perfusion, seven weeks
Procedure: Unilateral hindlimb ischemia was induced in ICR mice by ligating and excising the right femoral artery. Briefly, animals were anesthetized by an intraperitoneal injection of Xylocaine (2 mg/kg of body weight) plus Zoletil (i.e., the dissociative anesthetic Tiletamine/Zolazepam at a ratio of 1:1; 5 mg/kg of body weight). The proximal and distal portions of the femoral artery were ligated with a silk thread, and a 0.2 centimeter section of the blood vessel was removed. Hindlimb blood perfusion was measured with a laser Doppler perfusion imager system (Moor Instruments Limited, Devon, UK) before and after the surgery and was then followed on a weekly basis. Animals were subcutaneously treated with compound 4 (6 mg/kg/d, twice a week) in saline after surgery. The animals were sacrificed by cervical dislocation without sedation at the end of the seven experimental weeks. To avoid the influence of ambient light and temperature, the results are expressed as the ratio of perfusion in the right (ischemic) versus left (non-ischemic) limb.

[2] = test system: Ischemic Stroke in Rats; assay: Ischemic stroke in rats (MCAo); assay type: in vivo, male Sprague-Dawley rats; details: 1 mg/kg/d i.p. for 5 days; for horizontal movement number compared with vehicle-treated animals / vertical movement number: day 2 after MCAo; for volume of infarction as compared to vehicle (TTC staining): day 5 after MCAo
Procedure: Adult male Sprague-Dawley rats (250-300 g) were anesthetized with chloral hydrate (400 mg/kg i.p.). The right middle cerebral artery was occluded (MCAo) and bilateral common carotids (CCAs) were clamped for 60 minutes to generate focal ischemia in the right cerebral cortex. Core body temperature was maintained at 37° C.
Compounds 62 and 63 and a vehicle were administered to the rats at a dose of 1 mg/kg/d (i.p.) for 5 consecutive days. The first dose was given at 90 minutes after MCAo. Each animal was placed in a 42×42×31 cm activity monitor for 1 h on day 2 after MCAo. The monitor contained 16 horizontal and 8 vertical infrared sensors spaced 2.5 cm apart. Locomotor activity was calculated using the number of infrared beams broken by the animals.
TTC staining was performed on day 5 after MCAo to determine infarction size as described previously in Brain Research, volume 1116, issue 1, 2006, pages 159-165. Briefly, rats were decapitated and the brains were removed and sliced into 2.0-mm-thick sections. The brain slices were incubated in a 2% TTC solution (Sigma-Aldrich) for 15 minutes at room temperature and then transferred into a 4% paraformaldehyde solution for fixation. The area of infarction in each slice was measured with a digital scanner and Imagetools programs (University of Texas Health Sciences Center). The volume of infarction in each animal was obtained from the product of average slice thickness (2 mm) and sum of infarction areas in all brain slices examined.

SMILES | improvement of blood flow in the ischemic hindlimb as compared with the vehicle control [1] | horizontal movement number compared with vehicle-treated animals [2] | vertical movement number [2] | volume of infarction as compared to vehicle (TTC staining) [2]
c1ccc2c(NC3CCNCC3)nc(NCc3cn(CCCNCCCNC4CCCCC4)nn3)nc2c1 [Compound 4] | 20-25% | – | – | –
N[C@@H](CCC(=O)N1CCC(Nc2nc(NCc3cn(CCCNCCCNC4CCCCC4)nn3)nc3ccccc23)CC1)C(=O)OCc1ccccc1 [Compound 62] | – | significant increase | significantly increased | significantly reduced
N[C@@H](CCC(=O)N1CCC(Nc2nc(NCc3cn(CCCNCCCNC4CCCCC4)nn3)nc3ccccc23)CC1)C(=O)O [Compound 63] | – | significant increase | significantly increased | significantly reduced
